Experiments:
Mus musculus [1] = assay: In vivo biodistribution in NMRI (Naval Medical Research Institute) mice brain at the dose of 0.15-0.2 nmol at 2 min; format: ADME, organism-based
Mus musculus [2] = assay: In vivo biodistribution in NMRI (Naval Medical Research Institute) mice intestine at the dose of 0.15-0.2 nmol at 2 min; format: ADME, organism-based
Mus musculus [3] = assay: In vivo biodistribution in NMRI (Naval Medical Research Institute) mice lung at the dose of 0.15-0.2 nmol at 20 min; format: ADME, organism-based
Mus musculus [4] = assay: In vivo biodistribution in NMRI (Naval Medical Research Institute) mice pnacreas at the dose of 0.15-0.2 nmol at 20 min; format: ADME, organism-based
Mus musculus [5] = assay: In vivo biodistribution in NMRI (Naval Medical Research Institute) mice lung at the dose of 0.15-0.2 nmol at 5 min; format: ADME, organism-based
Mus musculus [6] = assay: In vivo biodistribution in NMRI (Naval Medical Research Institute) mice bone at the dose of 0.15-0.2 nmol at 40 min; format: ADME, organism-based, Bone element
Mus musculus [7] = assay: In vivo biodistribution in NMRI (Naval Medical Research Institute) mice bone at the dose of 0.15-0.2 nmol at 5 min; format: ADME, organism-based, Bone element
Mus musculus [8] = assay: In vivo biodistribution in NMRI (Naval Medical Research Institute) mice liver at the dose of 0.15-0.2 nmol at 20 min; format: ADME, organism-based
Mus musculus [9] = assay: In vivo biodistribution in NMRI (Naval Medical Research Institute) mice heart at the dose of 0.15-0.2 nmol at 2 min; format: ADME, organism-based
Mus musculus [10] = assay: In vivo biodistribution in NMRI (Naval Medical Research Institute) mice pancreas at the dose of 0.15-0.2 nmol at 40 min; format: ADME, organism-based
Mus musculus [11] = assay: In vivo biodistribution in NMRI (Naval Medical Research Institute) mice kidney at the dose of 0.15-0.2 nmol at 60 min; format: ADME, organism-based; conditions: 1 h
Mus musculus [12] = assay: In vivo biodistribution in NMRI (Naval Medical Research Institute) mice pancreas at the dose of 0.15-0.2 nmol at 60 min; format: ADME, organism-based; conditions: 1 h
Mus musculus [13] = assay: In vivo biodistribution in NMRI (Naval Medical Research Institute) mice intestine at the dose of 0.15-0.2 nmol at 40 min; format: ADME, organism-based
[14] = Ultrafiltration in human plasma; format: functional
Mus musculus [15] = assay: In vivo biodistribution in NMRI (Naval Medical Research Institute) mice spleen at the dose of 0.15-0.2 nmol at 2 min; format: ADME, organism-based
Mus musculus [16] = assay: In vivo biodistribution in NMRI (Naval Medical Research Institute) mice pancreas at the dose of 0.15-0.2 nmol at 10 min; format: ADME, organism-based
Mus musculus [17] = assay: In vivo biodistribution in NMRI (Naval Medical Research Institute) mice blood at the dose of 0.15-0.2 nmol at 10 min; format: ADME, organism-based
Adenosine receptor A1 [18] = molecular target: T1, Adenosine receptor A1 (Rattus norvegicus, UniProt P25099); assay: In vitro binding affinity at rat Adenosine A1 receptor
T1 sequence (P25099 whole entry): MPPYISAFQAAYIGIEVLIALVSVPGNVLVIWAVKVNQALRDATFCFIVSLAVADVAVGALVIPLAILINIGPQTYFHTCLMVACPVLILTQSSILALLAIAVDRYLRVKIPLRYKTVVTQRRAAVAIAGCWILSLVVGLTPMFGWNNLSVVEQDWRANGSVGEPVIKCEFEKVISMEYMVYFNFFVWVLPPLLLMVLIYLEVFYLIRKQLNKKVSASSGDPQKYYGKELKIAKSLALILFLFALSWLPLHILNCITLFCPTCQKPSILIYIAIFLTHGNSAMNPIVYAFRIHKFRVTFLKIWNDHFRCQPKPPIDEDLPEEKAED

Mus musculus [19] = assay: In vivo biodistribution in NMRI (Naval Medical Research Institute) mice kidney at the dose of 0.15-0.2 nmol at 5 min; format: ADME, organism-based
Adenosine receptor A1 [20] = molecular target: T2, Adenosine receptor A1 (Bos taurus, UniProt P28190); assay: In vitro binding affinity for Adenosine A1 receptor of bovine cortex
T2 sequence (P28190 whole entry): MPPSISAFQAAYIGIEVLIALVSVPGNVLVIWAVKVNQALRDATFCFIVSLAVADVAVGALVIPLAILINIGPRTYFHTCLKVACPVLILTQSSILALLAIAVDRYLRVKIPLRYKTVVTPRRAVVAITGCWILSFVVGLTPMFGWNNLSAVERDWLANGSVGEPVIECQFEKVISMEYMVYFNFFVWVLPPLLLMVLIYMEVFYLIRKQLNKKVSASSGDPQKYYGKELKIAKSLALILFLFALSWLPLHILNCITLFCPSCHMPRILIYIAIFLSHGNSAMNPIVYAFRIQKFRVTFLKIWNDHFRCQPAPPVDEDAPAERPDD

Mus musculus [21] = assay: In vivo biodistribution in NMRI (Naval Medical Research Institute) mice liver at the dose of 0.15-0.2 nmol at 5 min; format: ADME, organism-based
Mus musculus [22] = assay: In vivo biodistribution in NMRI (Naval Medical Research Institute) mice blood at the dose of 0.15-0.2 nmol at 60 min; format: ADME, organism-based; conditions: 1 h
Mus musculus [23] = assay: In vivo biodistribution in NMRI (Naval Medical Research Institute) mice intestine at the dose of 0.15-0.2 nmol at 5 min; format: ADME, organism-based
Mus musculus [24] = assay: In vivo biodistribution in NMRI (Naval Medical Research Institute) mice heart at the dose of 0.15-0.2 nmol at 5 min; format: ADME, organism-based
Adenosine receptor A2a = Adenosine receptor A2a (Rattus norvegicus, UniProt P30543); assay: In vitro binding affinity at Adenosine A2A receptor of rat cortex
Sequence of Adenosine receptor A2a (P30543 whole entry): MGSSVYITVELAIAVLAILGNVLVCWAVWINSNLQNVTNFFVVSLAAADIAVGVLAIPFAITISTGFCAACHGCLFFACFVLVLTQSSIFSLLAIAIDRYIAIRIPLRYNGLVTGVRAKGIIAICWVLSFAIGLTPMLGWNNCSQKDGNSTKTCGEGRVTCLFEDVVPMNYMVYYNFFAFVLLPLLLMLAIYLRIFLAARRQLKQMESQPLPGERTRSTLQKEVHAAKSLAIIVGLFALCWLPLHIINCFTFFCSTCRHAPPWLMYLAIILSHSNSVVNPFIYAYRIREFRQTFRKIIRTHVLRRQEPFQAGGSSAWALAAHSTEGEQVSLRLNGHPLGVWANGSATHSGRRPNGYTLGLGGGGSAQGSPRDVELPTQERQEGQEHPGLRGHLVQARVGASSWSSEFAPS

Mus musculus [25] = assay: In vivo biodistribution in NMRI (Naval Medical Research Institute) mice kidney at the dose of 0.15-0.2 nmol at 20 min; format: ADME, organism-based
Mus musculus [26] = assay: In vivo biodistribution in NMRI (Naval Medical Research Institute) mice lung at the dose of 0.15-0.2 nmol at 60 min; format: ADME, organism-based; conditions: 1 h
Mus musculus [27] = assay: In vivo biodistribution in NMRI (Naval Medical Research Institute) mice liver at the dose of 0.15-0.2 nmol at 60 min; format: ADME, organism-based; conditions: 1 h
Mus musculus [28] = assay: In vivo biodistribution in NMRI (Naval Medical Research Institute) mice bone at the dose of 0.15-0.2 nmol at 2 min; format: ADME, organism-based, Bone element
Mus musculus [29] = assay: In vivo biodistribution in NMRI (Naval Medical Research Institute) mice pancreas at the dose of 0.15-0.2 nmol at 5 min; format: ADME, organism-based
Mus musculus [30] = assay: In vivo biodistribution in NMRI (Naval Medical Research Institute) mice brain at the dose of 0.15-0.2 nmol at 5 min; format: ADME, organism-based
Mus musculus [31] = assay: In vivo biodistribution in NMRI (Naval Medical Research Institute) mice kidney at the dose of 0.15-0.2 nmol at 2 min; format: ADME, organism-based
Mus musculus [32] = assay: In vivo biodistribution in NMRI (Naval Medical Research Institute) mice intestine at the dose of 0.15-0.2 nmol at 60 min; format: ADME, organism-based; conditions: 1 h

ID/g (Mus musculus [1]): 2.45%
ID/g (Mus musculus [2]): 2.07%
ID/g (Mus musculus [3]): 5.75%
ID/g (Mus musculus [4]): 4.58%
ID/g (Mus musculus [5]): 4.22%
ID/g (Mus musculus [6]): 2.18%
ID/g (Mus musculus [7]): 1.4%
ID/g (Mus musculus [8]): 9.93%
ID/g (Mus musculus [9]): 4.64%
ID/g (Mus musculus [10]): 3.22%
ID/g (Mus musculus [11]): 2.63%
ID/g (Mus musculus [12]): 1.03%
ID/g (Mus musculus [13]): 3.74%
ID/g (Mus musculus [15]): 2.25%
ID/g (Mus musculus [16]): 4.29%
ID/g (Mus musculus [17]): 5.21%
Kd (Adenosine receptor A1 [18]): 630 pM
ID/g (Mus musculus [19]): 3.81%
Ki (Adenosine receptor A1 [20]): 180 pM
ID/g (Mus musculus [21]): 7.44%
ID/g (Mus musculus [22]): 1.55%
ID/g (Mus musculus [23]): 2.21%
ID/g (Mus musculus [24]): 3.71%
Ki (Adenosine receptor A2a): 812000 pM
ID/g (Mus musculus [25]): 6.05%
ID/g (Mus musculus [26]): 2.43%
ID/g (Mus musculus [27]): 4.36%
ID/g (Mus musculus [28]): 0.37%
ID/g (Mus musculus [29]): 3.35%
ID/g (Mus musculus [30]): 2.37%
ID/g (Mus musculus [31]): 4.68%
ID/g (Mus musculus [32]): 9.13%
SMILES: CCCn1c(=O)c2nc(C3CCCC3)[nH]c2n(CCC[18F])c1=O
Ultrafiltration [14]: 86
